The target of the assay is T1, IgE-Tb / soluble IgE receptor FcεRIα with a Y131A mutation (Homo sapiens, UniProt P01854, N146Q/N252Q).
T1 construct: fused on or other part: Terbium chelate (LanthaScreen amine-reactive) on IgE-Fc; Alexa Fluor 488 hydrazide on the oxidised glycans of sFcεRIα; Both are labels and no part of the key
Nature of the assay: in vitro FRET assay: binding of IgE-Tb to receptor FcεRIα-Y131A-AF488 and its inhibition by compounds. Conditions: 5 nM IgE-Tb, 25 nM FcεRIα-Y131A-AF488, 2 hours at room temperature; read-out: FRET IC50 range.

Structures can show the parent of a compound that is named as a salt.

T1 sequence (P01854 104-427 N146Q/N252Q): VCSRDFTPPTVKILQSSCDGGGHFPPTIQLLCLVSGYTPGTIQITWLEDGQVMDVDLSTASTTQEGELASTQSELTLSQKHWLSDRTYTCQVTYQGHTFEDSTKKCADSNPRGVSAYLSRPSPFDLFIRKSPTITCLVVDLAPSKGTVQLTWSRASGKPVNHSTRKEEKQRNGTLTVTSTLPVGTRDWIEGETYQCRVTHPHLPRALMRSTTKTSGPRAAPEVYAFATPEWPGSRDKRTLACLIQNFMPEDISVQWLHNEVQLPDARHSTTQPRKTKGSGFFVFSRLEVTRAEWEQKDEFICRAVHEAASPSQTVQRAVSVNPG
T1 sequence (P12319 26-201 Y156A partner): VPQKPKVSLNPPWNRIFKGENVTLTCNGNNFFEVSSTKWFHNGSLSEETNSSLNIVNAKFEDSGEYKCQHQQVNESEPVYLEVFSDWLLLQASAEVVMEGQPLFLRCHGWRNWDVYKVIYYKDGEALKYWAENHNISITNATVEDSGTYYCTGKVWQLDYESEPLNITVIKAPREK

For the compound `CC(C)(F)CNS(=O)(=O)c1c2c(cc3cnc(C4CC4)cc13)CC(c1nc3c(=O)[nH]ccc3[nH]1)C2` (stereo not drawn) [Example 71, 3-cyclopropyl-N-(2-fluoro-2-methylpropyl)-7-(4-oxo-1,5-dihydroimidazo[4,5-c]pyridin-2-yl)-7,8-dihydro-6H-cyclopenta[g]isoquinoline-5-sulfonamide], the IC50 (as a rule, the point on the concentration scale where inhibition reaches its midpoint) was 50 to 100 nM. For `CC(C)(F)CNS(=O)(=O)c1c2c(cc3cnc(C4CC4)cc13)CN(C(=O)Cc1cccnc1)C2` [Example 72, 7-cyclopropyl-N-(2-fluoro-2-methylpropyl)-2-(2-pyridin-3-ylacetyl)-1,3-dihydropyrrolo[3,4-g]isoquinoline-9-sulfonamide], the concentration for half-maximal inhibition (IC50) lay within 100 to 2000 nM.

In the case of `CC(C)(F)CNS(=O)(=O)c1c2c(cc3cnc(C4CC4)cc13)C[C@@H](Nc1ccc(F)nc1)C2` [Example 73, (7R)-3-cyclopropyl-N-(2-fluoro-2-methylpropyl)-7-[(6-fluoropyridin-3-yl)amino]-7,8-dihydro-6H-cyclopenta[g]isoquinoline-5-sulfonamide], the IC50 is 10 to 50 nM. On to `O=S(=O)(NC1CC(F)(F)C1)c1c2c(cc3cnc(C4CC4)cc13)CC(Nc1ccc(C3(O)COC3)nc1)C2` (stereo not drawn) [Example 74, 3-cyclopropyl-N-(3,3-difluorocyclobutyl)-7-[[6-(3-hydroxyoxetan-3-yl)pyridin-3-yl]amino]-7,8-dihydro-6H-cyclopenta[g]isoquinoline-5-sulfonamide], for which the IC50 lay within 10 to 50 nM. With `CC(C)(F)CNS(=O)(=O)c1c2c(cc3cnc(C4CC4)cc13)C[C@@H](Nc1cncc(Oc3cc[nH]c(=O)c3)c1)C2` [Example 75, (7R)-3-cyclopropyl-N-(2-fluoro-2-methylpropyl)-7-[[5-[(2-oxo-1H-pyridin-4-yl)oxy]pyridin-3-yl]amino]-7,8-dihydro-6H-cyclopenta[g]isoquinoline-5-sulfonamide], the IC50 lay within 10 to 50 nM. For the compound `CC(C)NC(=O)c1ccc(N[C@@H]2Cc3cc4cnc(C5CC5)cc4c(S(=O)(=O)NCC(C)(C)F)c3C2)cn1` [Example 77, 5-[[(7R)-3-cyclopropyl-5-[(2-fluoro-2-methylpropyl)sulfamoyl]-7,8-dihydro-6H-cyclopenta[g]isoquinolin-7-yl]amino]-N-propan-2-ylpyridine-2-carboxamide], the IC50 lay within 10 to 50 nM. For `Cc1ncccc1-n1cnnc1NC1Cc2cc3cnc(C4CC4)cc3c(S(=O)(=O)NCC(C)(C)F)c2C1` (stereo not drawn) [Example 78, 3-cyclopropyl-N-(2-fluoro-2-methylpropyl)-7-[[4-(2-methylpyridin-3-yl)-1,2,4-triazol-3-yl]amino]-7,8-dihydro-6H-cyclopenta[g]isoquinoline-5-sulfonamide], the IC50 is 100 to 2000 nM. In the case of `CC(C)(F)CNS(=O)(=O)c1c2c(cc3cnc(C4CC4)cc13)CC(c1ccno1)C2` (stereo not drawn) [Example 79, 3-cyclopropyl-N-(2-fluoro-2-methylpropyl)-7-(1,2-oxazol-5-yl)-7,8-dihydro-6H-cyclopenta[g]isoquinoline-5-sulfonamide], the IC50 was 100 to 2000 nM. With `Cc1ccc(NC2Cc3cc4cnc(C5CC5)cc4c(S(=O)(=O)NCC(C)(C)O)c3C2)nn1` (stereo not drawn) [Example 80, 3-cyclopropyl-N-(2-hydroxy-2-methylpropyl)-7-[(6-methylpyridazin-3-yl)amino]-7,8-dihydro-6H-cyclopenta[g]isoquinoline-5-sulfonamide], the IC50 was 100 to 2000 nM. Take `CC1(C)CC1NS(=O)(=O)c1c2c(cc3cnc(C4CC4)cc13)CC(C(=O)Nc1cccnc1)C2` (stereo not drawn) [Example 81, 3-cyclopropyl-5-[(2,2-dimethylcyclopropyl)sulfamoyl]-N-pyridin-3-yl-7,8-dihydro-6H-cyclopenta[g]isoquinoline-7-carboxamide]: the IC50 is 100 to 2000 nM. For the compound `CC(C)(F)CNS(=O)(=O)c1c2c(cc3cnc(C4CC4)cc13)CC(Nc1cncc3[nH]ncc13)C2` (stereo not drawn) [Example 83, 3-cyclopropyl-N-(2-fluoro-2-methyl-propyl)-7-(1H-pyrazolo[3,4-c]pyridin-4-ylamino)-7,8-dihydro-6H-cyclopenta[g]isoquinoline-5-sulfonamide, formate salt], the IC50 lay in the range of 10 to 50 nM. Regarding `Cn1ncc2c(NC3Cc4cc5cnc(C6CC6)cc5c(S(=O)(=O)NCC(C)(C)F)c4C3)cncc21` (stereo not drawn) [Example 84, 3-cyclopropyl-N-(2-fluoro-2-methylpropyl)-7-[(1-methylpyrazolo[3,4-c]pyridin-4-yl)amino]-7,8-dihydro-6H-cyclopenta[g]isoquinoline-5-sulfonamide], the IC50 is 10 to 50 nM.

Consider `CC(C)(C)OC(=O)c1ccc(N[C@@H]2Cc3cc4cnc(C5CC5)cc4c(S(=O)(=O)NC4CC(F)(F)C4)c3C2)cn1` [Example 85, tert-butyl 5-[[(7R)-3-cyclopropyl-5-[(3,3-difluorocyclobutyl)sulfamoyl]-7,8-dihydro-6H-cyclopenta[g]isoquinolin-7-yl]amino]pyridine-2-carboxylate], for which the IC50 fell in the range of 10 to 50 nM. The same measure for `CC(C)(F)CNS(=O)(=O)c1c2c(cc3cnc(C4CC4)cc13)CC(Nc1cccnc1)C2` (stereo not drawn) [Example 86, 3-cyclopropyl-N-(2-fluoro-2-methylpropyl)-7-(pyridin-3-ylamino)-7,8-dihydro-6H-cyclopenta[g]isoquinoline-5-sulfonamide]: 10 to 50 nM; for `CC(C)(F)CNS(=O)(=O)c1c2c(cc3cnc(C4CC4)cc13)CC(NC(=O)Cc1ccccc1)C2` (stereo not drawn) [Example 87, N-[3-cyclopropyl-5-[(2-fluoro-2-methylpropyl)sulfamoyl]-7,8-dihydro-6H-cyclopenta[g]isoquinolin-7-yl]-2-phenylacetamide]: 50 to 100 nM. As for `CC(C)CNS(=O)(=O)c1c2c(cc3cnc(C4CC4)cc13)CC(Nc1ccc(C(=O)O)nc1)C2` (stereo not drawn) [Example 88, 5-[[3-cyclopropyl-5-(isobutylsulfamoyl)-7,8-dihydro-6H-cyclopenta[g]isoquinolin-7-yl]amino]pyridine-2-carboxylic acid; hydrochloride], the IC50 was 50 to 100 nM. In the case of `O=C(O)c1ccc(NC2Cc3cc4cnc(C5CC5)cc4c(S(=O)(=O)NC4CC(F)(F)C4)c3C2)cn1` (stereo not drawn) [Example 89, 5-[[3-cyclopropyl-5-[(3,3-difluorocyclobutyl)sulfamoyl]-7,8-dihydro-6H-cyclopenta[g]isoquinolin-7-yl]amino]pyridine-2-carboxylic acid], the IC50 lay within 100 to 2000 nM. For the compound `CC(C)(F)CNS(=O)(=O)c1c2c(cc3cnc(C4CC4)cc13)C[C@H](n1cnc(C(N)=O)c1N)C2` [Example 90, 5-amino-1-[(7S)-3-cyclopropyl-5-[(2-fluoro-2-methylpropyl)sulfamoyl]-7,8-dihydro-6H-cyclopenta[g]isoquinolin-7-yl]imidazole-4-carboxamide], the IC50 fell in the range of 100 to 2000 nM. Regarding `CC(C)(F)CNS(=O)(=O)c1c2c(cc3cnc(C4CC4)cc13)CN(Cc1cccnc1)C2` [Example 91, 7-cyclopropyl-N-(2-fluoro-2-methyl-propyl)-2-(3-pyridylmethyl)-1,3-dihydropyrrolo[3,4-g]isoquinoline-9-sulfonamide; formic acid], the IC50 was in the range of 100 to 2000 nM. For the compound `Cc1nnc(-n2ccc(N[C@@H]3Cc4cc5cnc(C6CC6)cc5c(S(=O)(=O)NCC(C)(C)F)c4C3)cc2=O)o1` [Example 92, (7R)-3-cyclopropyl-N-(2-fluoro-2-methylpropyl)-7-[[1-(5-methyl-1,3,4-oxadiazol-2-yl)-2-oxopyridin-4-yl]amino]-7,8-dihydro-6H-cyclopenta[g]isoquinoline-5-sulfonamide], the IC50 lay in the range of 10 to 50 nM. The same measure for `CNS(=O)(=O)c1ccc(N[C@@H]2Cc3cc4cnc(C5CC5)cc4c(S(=O)(=O)NCC(C)(C)F)c3C2)cn1` [Example 93, (7R)-3-cyclopropyl-N-(2-fluoro-2-methylpropyl)-7-[[6-(methylsulfamoyl)pyridin-3-yl]amino]-7,8-dihydro-6H-cyclopenta[g]isoquinoline-5-sulfonamide]: 10 to 50 nM. `NC(=O)c1ccc(N[C@@H]2Cc3cc4cnc(C5CC5)cc4c(S(=O)(=O)NC4CC(F)(F)C4)c3C2)nn1` [Example 94, 6-[[(7R)-3-cyclopropyl-5-[(3,3-difluorocyclobutyl)sulfamoyl]-7,8-dihydro-6H-cyclopenta[g]isoquinolin-7-yl]amino]pyridazine-3-carboxamide]: the IC50 was 10 to 50 nM. On to `CC(=O)NS(=O)(=O)c1ccc(N[C@@H]2Cc3cc4cnc(C5CC5)cc4c(S(=O)(=O)NCC(C)(C)F)c3C2)cn1` [Example 95, N-[5-[[(7R)-3-cyclopropyl-5-[(2-fluoro-2-methylpropyl)sulfamoyl]-7,8-dihydro-6H-cyclopenta[g]isoquinolin-7-yl]amino]pyridin-2-yl]sulfonylacetamide], for which the IC50 fell in the range of 50 to 100 nM. For `Cn1ccc(NC2Cc3cc4cnc(C5CC5)cc4c(S(=O)(=O)NCC(C)(C)F)c3C2)cc1=O` (stereo not drawn) [Example 96, 3-cyclopropyl-N-(2-fluoro-2-methyl-propyl)-7-[(1-methyl-2-oxo-4-pyridyl)amino]-7,8-dihydro-6H-cyclopenta[g]isoquinoline-5-sulfonamide; formate salt], the IC50 fell in the range of 10 to 50 nM. `Cc1nnc(NC2Cc3cc4cnc(C5CC5)cc4c(S(=O)(=O)NCC(C)(C)F)c3C2)o1` (stereo not drawn) [Example 97, 3-cyclopropyl-N-(2-fluoro-2-methylpropyl)-7-[(5-methyl-1,3,4-oxadiazol-2-yl)amino]-7,8-dihydro-6H-cyclopenta[g]isoquinoline-5-sulfonamide]: the IC50 was 100 to 2000 nM. Consider `CC(C)(F)CNS(=O)(=O)c1c2c(cc3cnc(C4CC4)cc13)CC(NC1=CC(=O)C1(C)C)C2` (stereo not drawn) [Example 98, 3-cyclopropyl-7-[(4,4-dimethyl-3-oxocyclobuten-1-yl)amino]-N-(2-fluoro-2-methylpropyl)-7,8-dihydro-6H-cyclopenta[g]isoquinoline-5-sulfonamide], for which the IC50 fell in the range of 100 to 2000 nM. As to `CC(C)CNS(=O)(=O)N1Cc2cc3cnc(C4CC4)cc3c(S(=O)(=O)NCC(C)(C)F)c2C1` [Example 99, 7-cyclopropyl-9-N-(2-fluoro-2-methylpropyl)-2-N-(2-methylpropyl)-1,3-dihydropyrrolo[3,4-g]isoquinoline-2,9-disulfonamide], the IC50 was 100 to 2000 nM.

These data come from US12577228B2, “Dihydrocyclopenta-isoquinoline-sulfonamide derivatives compounds” (UCB Biopharma SRL, priority 2019, dated 2026).
